Earlier results as cited in patent US20070031339A1, “Contrast agents” (priority 2003, published 2007).

Conditions: aqueous solution at 350 mg iodine/ml, 37° C.

Viscosity: 7.6 mPas
SMILES: C[C@H](O)C(=O)Nc1c(I)c(C(=O)NC(CO)CO)c(I)c(C(=O)NC(CO)CO)c1I [lopamidol]
